Experimental data taken from article PMC6063846, “Matrine inhibits itching by lowering the activity of calcium channel” (Scientific Reports, 2018).

Target: T1, N-type calcium channel (Mus musculus, UniProt O55017)
T1 construct: gene Cacna1b
Assay type: cell-based

T1 sequence (O55017 whole entry): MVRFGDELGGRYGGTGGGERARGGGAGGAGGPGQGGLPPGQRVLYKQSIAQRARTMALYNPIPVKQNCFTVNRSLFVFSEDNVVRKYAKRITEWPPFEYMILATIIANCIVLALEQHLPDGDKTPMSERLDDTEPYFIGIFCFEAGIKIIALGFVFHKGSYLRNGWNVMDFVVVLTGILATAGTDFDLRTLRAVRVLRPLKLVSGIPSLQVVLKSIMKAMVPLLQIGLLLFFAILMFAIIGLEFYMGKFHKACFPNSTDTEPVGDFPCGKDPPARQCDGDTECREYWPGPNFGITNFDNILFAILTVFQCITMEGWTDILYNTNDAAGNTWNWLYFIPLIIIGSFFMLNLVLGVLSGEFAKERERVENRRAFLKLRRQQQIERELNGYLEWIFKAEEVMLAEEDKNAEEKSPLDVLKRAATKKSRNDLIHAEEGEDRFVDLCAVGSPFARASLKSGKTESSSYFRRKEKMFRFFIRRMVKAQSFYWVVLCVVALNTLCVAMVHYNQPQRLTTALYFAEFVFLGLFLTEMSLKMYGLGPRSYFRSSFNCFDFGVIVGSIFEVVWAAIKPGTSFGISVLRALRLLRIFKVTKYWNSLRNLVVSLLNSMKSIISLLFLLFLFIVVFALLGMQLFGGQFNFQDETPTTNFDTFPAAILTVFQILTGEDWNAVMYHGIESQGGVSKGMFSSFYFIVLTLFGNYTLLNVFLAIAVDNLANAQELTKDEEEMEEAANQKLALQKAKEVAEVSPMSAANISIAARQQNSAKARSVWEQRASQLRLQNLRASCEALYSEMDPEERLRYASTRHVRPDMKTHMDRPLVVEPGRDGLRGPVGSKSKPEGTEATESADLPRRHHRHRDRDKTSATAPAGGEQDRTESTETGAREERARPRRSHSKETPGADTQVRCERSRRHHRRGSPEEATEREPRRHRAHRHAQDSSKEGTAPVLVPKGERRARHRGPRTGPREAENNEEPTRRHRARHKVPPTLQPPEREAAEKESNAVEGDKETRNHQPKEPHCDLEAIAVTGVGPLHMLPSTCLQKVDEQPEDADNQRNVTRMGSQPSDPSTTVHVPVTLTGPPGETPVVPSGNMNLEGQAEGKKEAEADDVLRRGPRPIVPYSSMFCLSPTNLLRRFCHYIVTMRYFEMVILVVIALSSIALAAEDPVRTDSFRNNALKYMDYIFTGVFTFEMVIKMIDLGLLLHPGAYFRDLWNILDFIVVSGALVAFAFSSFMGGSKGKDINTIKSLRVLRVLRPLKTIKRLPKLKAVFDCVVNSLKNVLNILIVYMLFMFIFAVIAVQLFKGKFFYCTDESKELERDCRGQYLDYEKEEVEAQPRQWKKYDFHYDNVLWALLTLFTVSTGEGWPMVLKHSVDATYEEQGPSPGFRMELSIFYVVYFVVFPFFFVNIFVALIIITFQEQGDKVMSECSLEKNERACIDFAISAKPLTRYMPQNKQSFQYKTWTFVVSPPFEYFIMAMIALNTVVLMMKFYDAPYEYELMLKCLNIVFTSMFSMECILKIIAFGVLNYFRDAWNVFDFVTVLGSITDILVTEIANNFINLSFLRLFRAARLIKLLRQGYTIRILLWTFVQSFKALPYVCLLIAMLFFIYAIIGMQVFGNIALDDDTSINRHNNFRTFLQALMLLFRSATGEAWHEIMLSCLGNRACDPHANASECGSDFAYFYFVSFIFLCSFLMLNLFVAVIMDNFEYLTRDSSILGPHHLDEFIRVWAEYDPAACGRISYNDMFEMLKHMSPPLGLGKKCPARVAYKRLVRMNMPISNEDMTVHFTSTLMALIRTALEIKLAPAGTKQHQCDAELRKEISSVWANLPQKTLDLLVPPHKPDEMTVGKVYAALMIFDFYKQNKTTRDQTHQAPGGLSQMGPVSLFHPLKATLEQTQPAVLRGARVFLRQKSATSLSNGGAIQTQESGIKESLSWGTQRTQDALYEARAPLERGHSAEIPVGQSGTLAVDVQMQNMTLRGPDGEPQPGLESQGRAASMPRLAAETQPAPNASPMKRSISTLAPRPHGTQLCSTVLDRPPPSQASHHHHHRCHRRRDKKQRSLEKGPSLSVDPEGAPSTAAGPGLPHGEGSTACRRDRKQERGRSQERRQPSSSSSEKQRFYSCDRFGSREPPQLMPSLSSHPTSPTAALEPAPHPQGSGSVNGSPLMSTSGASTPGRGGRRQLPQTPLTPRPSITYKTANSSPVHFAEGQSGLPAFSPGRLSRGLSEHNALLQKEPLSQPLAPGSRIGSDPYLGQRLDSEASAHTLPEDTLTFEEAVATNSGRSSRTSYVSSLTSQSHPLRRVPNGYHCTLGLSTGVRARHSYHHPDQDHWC

O=C1CCC[C@@H]2[C@H]3CCCN4CCC[C@@H](CN12)[C@@H]34 [MT, Matrine]
whole-cell patch clamp of HVA Ca2+ currents in native mouse DRG neurons, occlusi: the inhibitory effect of MT on HVA Ica current is mainly by inhibiting the N-type calcium channel
